Measurements: US20220127247A1, “N-(PYRIDIN-2-YL)PYRIDINE-SULFONAMIDE DERIVATIVES AND THEIR USE IN THE TREATMENT OF DISEASE” (NOVARTIS AG, priority 2019, published 2022)

Target: T1, delF508-CFTR (Homo sapiens, UniProt P13569, DEL508-508)
T1 construct: expressed in transfected cells
Experiment: Measurement of delF508-CFTR-HRP surface expression in CFBE41o- cells
Type: cell-based
Settings: for EC50: HRP-tagged delF508-CFTR in CFBE41o- cells, 24 h with compound, luminescence, 10-point curve, top 10 μM; for Emax: efficacy relative to reference compound 3-(6-(1-(2,2-difluorobenzo[d][1,3]dioxol-5-yl)cyclopropane-1-carboxamido)-3-methylpyridin-2-yl)benzoic acid, CFBE41o- cells, 24 h, read-out: DelF508-CFTR-HRP Amax %
Source text: Measurement of delF508-CFTR-HRP Surface Expression in CFBE41o-Cells
This assay quantifies the cell surface expressions of the mutant CFTR channel using an extracellular HRP tag.
A cellular assay was developed to measure surface expression of horseradish peroxidase (HRP) tagged delF508-CFTR in the human bronchial epithelial immortalized CFBE41o-cell line (Phuan, P. W., et al, (2014) Molecular Pharmacology 86:42-51). Specifically, the HRP sequence was inserted into the fourth extracellular loop of delF508-CFTR and stably expressed in CFBE41o-cells. Cells were seeded in 384 well plate at a density of 5000 cells/well and incubated at 37° C. for 12 to 24 hours in medium (Gibco MEM #11095, 10% FBS, 10 mM HEPES, […], 200 μg/mL G418, 3 μg/mL Puromycin). The delF508-CFTR-HRP expression was induced with 500 ng/mL doxycycline (Sigma D-9891, dissolved in H2O and sterile filtered) in medium and the cells were incubated at 37° C. for 48 h. Old medium was removed and fresh medium was added containing 500 ng/mL doxycycline and unknown test compound at required test concentration in DMSO, not exceeding 0.5% final DMSO concentration. The highest concentration tested was 10 μM with a 10-point concentration response curve using a 3-fold dilution. After addition of compounds, the cells were incubated for 24 h at 37° C. On the final day, cells were washed four times in PBS containing 1 mM MgCl2 and 0.1 mM CaCl2. HRP-Substrate (SuperSignal ELISA Pico, Fisher #37069) 20 μl/well was added and the luminescence signal was determined (Viewlux, Perkin Elmer). Light was emitted upon addition of exogenous HRP-Substrate only when delF508-CFTR-HRP reached the cell surface and the HRP tag was accessible to the HRP-Substrate (note: HRP-Substrate cannot cross the lipid bilayer to reach delF508-CFTR-HRP misfolded within the cell).
The median activity for the lowest concentration of the compounds on each assay plate was calculated and this value was used to normalize the signal for each well on the respective plate. Three replicates at each concentrations for every compound were run to determine one EC50. The median value was determined and used to calculate compound activities as described below. Effective half maximal values (EC50) were calculated for each compound by performing logistic regression on measured dose-response data points using the equation: […]
where “Y” is the observed activity, “Bottom” is the lowest observed value, “Top” is the highest observed value, and the “Hill coefficient” gives the largest absolute value of the slope. The curve fitting is carried out by a curve fitting program implemented at GNF using Matlab (Mathworks).
The dose response curves also were used to calculate Fold Change (FC) using the equation: […]
Compound efficacy relative to the reference compound 3-(6-(1-(2,2-difluorobenzo[d][1,3]dioxol-5-yl)cyclopropane-1-carboxamido)-3-methylpyridin-2-yl)benzoic acid was determined using the following formula: […]

T1 sequence (P13569 with tags, fused parts or gaps DEL508-508): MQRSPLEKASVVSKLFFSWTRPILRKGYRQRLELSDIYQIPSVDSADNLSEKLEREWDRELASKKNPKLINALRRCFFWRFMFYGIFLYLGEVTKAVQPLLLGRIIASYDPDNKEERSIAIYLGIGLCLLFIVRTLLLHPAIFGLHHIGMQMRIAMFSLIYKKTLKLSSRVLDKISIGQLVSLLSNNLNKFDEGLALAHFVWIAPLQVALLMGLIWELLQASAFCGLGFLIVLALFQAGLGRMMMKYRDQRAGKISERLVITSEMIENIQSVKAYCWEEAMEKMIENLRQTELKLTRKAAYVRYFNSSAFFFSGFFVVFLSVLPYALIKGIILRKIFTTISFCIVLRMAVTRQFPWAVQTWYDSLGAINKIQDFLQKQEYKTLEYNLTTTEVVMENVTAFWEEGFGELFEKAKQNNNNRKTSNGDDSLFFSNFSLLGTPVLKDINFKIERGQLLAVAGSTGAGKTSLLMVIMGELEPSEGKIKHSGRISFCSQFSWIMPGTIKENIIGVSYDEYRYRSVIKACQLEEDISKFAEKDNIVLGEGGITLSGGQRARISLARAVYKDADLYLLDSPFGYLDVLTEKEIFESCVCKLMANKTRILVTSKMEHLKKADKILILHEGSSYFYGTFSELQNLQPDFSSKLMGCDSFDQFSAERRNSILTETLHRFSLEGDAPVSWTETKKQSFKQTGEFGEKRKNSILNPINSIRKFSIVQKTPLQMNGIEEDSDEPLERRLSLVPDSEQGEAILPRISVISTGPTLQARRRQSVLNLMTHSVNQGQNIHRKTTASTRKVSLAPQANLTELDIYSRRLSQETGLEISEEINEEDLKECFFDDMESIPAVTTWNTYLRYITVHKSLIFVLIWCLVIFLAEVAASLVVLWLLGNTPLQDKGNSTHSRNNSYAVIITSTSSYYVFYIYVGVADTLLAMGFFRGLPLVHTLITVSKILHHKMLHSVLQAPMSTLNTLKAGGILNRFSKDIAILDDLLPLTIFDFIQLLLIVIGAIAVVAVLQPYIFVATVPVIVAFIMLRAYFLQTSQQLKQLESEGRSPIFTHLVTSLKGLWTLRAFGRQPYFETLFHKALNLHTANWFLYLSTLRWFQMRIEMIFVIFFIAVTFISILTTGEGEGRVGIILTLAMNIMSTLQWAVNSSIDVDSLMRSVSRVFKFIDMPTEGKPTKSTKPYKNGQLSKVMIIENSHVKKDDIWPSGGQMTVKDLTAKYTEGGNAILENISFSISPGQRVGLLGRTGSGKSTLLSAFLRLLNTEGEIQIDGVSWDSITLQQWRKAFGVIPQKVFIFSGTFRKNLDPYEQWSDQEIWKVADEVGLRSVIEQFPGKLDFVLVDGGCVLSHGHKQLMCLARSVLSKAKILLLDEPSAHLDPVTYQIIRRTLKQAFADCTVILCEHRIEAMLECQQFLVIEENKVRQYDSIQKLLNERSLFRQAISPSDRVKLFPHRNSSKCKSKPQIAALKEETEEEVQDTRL

Compound | EC50 [µM] | Emax [%]
Cc1ccccc1-c1nc(NS(=O)(=O)c2cccc(NC3CCCC(C(=O)O)C3)n2)ccc1C(F)(F)F (mixture of isomers) [Compound 105, 3-((6-(N-(6-(o-tolyl)-5-(trifluoromethyl)pyridin-2-yl)sulfamoyl)pyridin-2-yl)amino)cyclohexane-1-carboxylic Acid] | 1.81 | 361
Cc1ccccc1-c1nc(NS(=O)(=O)c2cccc(N[C@@H]3CCC[C@H](C(=O)O)C3)n2)ccc1C(F)(F)F (racemic) [106a 106b (racemic mixture)] | 1.95 | 392
Cc1ccccc1-c1nc(NS(=O)(=O)c2cccc(N[C@H]3[C@@H](C(=O)O)[C@H]4C=C[C@@H]3C4)n2)ccc1C(F)(F)F (racemic) [107a 107b (racemic mixture)] | 2.07 | 763
Cc1ccccc1-c1nc(NS(=O)(=O)c2cccc(N[C@@H]3[C@H]4CC[C@H](C4)[C@@H]3C(=O)O)n2)ccc1C(F)(F)F (racemic) [108a 108b (racemic mixture)] | 2.07 | 569
Cc1ccccc1-c1nc(NS(=O)(=O)c2cccc(N[C@@H]3[C@@H]4CC[C@@H](C4)[C@@H]3C(=O)O)n2)ccc1C(F)(F)F (racemic) [109a 109b (racemic mixture)] | 2.32 | 700
Cc1ccccc1-c1nc(NS(=O)(=O)c2cccc(N3CCC[C@@](C)(CC(=O)O)C3)n2)ccc1C(F)(F)F (single isomer, unassigned) [Compound 122] | 1.62 | 785
Cc1ccccc1-c1nc(NS(=O)(=O)c2cccc(N3CCC[C@](C)(CC(=O)O)C3)n2)ccc1C(F)(F)F (single isomer, unassigned) [Compound 123] | 1.61 | –
Cc1cccc(C)c1-c1nc(NS(=O)(=O)c2cccc(NCCC(=O)O)n2)ccc1Cl [Compound 1, 3-((6-(N-(5-chloro-6-(2,6-dimethylphenyl)pyridin-2-yl)sulfamoyl)pyridin-2-yl)amino)propanoic Acid] | 2.15 | 291
Cc1cccc(C)c1-c1nc(NS(=O)(=O)c2ccnc(NCCC(=O)O)c2)ccc1Cl [Compound 2, 3-((4-(N-(5-chloro-6-(2,6-dimethylphenyl)pyridin-2-yl)sulfamoyl)pyridin-2-yl)amino)propanoic Acid] | 2.72 | 124
Cc1cccc(C)c1-c1nc(NS(=O)(=O)c2cccc(NCCCC(=O)O)n2)ccc1Cl [Compound 3, 4-((6-(N-(5-chloro-6-(2,6-dimethylphenyl)pyridin-2-yl)sulfamoyl)pyridin-2-yl)amino)butanoic Acid] | 2.58 | 722
Cc1cccc(C)c1-c1nc(NS(=O)(=O)c2cccc(NCCCCC(=O)O)n2)ccc1Cl [Compound 4, 5-((6-(N-(5-chloro-6-(2,6-dimethylphenyl)pyridin-2-yl)sulfamoyl)pyridin-2-yl)amino)pentanoic Acid] | 2.19 | –
Cc1cccc(C)c1-c1nc(NS(=O)(=O)c2cccc(N3CCC(CC(=O)O)CC3)n2)ccc1Cl [Compound 5, 2-(1-(6-(N-(5-chloro-6-(2,6-dimethylphenyl)pyridin-2-yl)sulfamoyl)pyridin-2-yl)piperidin-4-yl)acetic Acid] | 2.58 | 596
Cc1ccc(F)cc1-c1nc(NS(=O)(=O)c2cccc(N3CCC(C)(CC(=O)O)CC3)n2)ccc1C(F)(F)F [Compound 6, 2-(1-(6-(N-(6-(5-fluoro-2-methylphenyl)-5-(trifluoromethyl)pyridin-2-yl)sulfamoyl)pyridin-2-yl)-4-methylpiperidin-4-yl)acetic Acid] | 1.52 | 529
Cc1ccccc1-c1nc(NS(=O)(=O)c2cccc(N3CCC(C)(CC(=O)O)CC3)n2)ccc1C(F)(F)F [Compound 7, 2-(4-methyl-1-(6-(N-(6-(o-tolyl)-5-(trifluoromethyl)pyridin-2-yl)sulfamoyl)pyridin-2-yl)piperidin-4-yl)acetic Acid] | 1.88 | 363
Cc1ccccc1-c1nc(NS(=O)(=O)c2cccc(NCC(C)(C)C(=O)O)n2)ccc1C(F)(F)F [Compound 8, 2,2-dimethyl-3-((6-(N-(6-(o-tolyl)-5-(trifluoromethyl)pyridin-2-yl)sulfamoyl)pyridin-2-yl)amino)propanoic Acid] | 1.85 | 271
Cc1ccccc1-c1nc(NS(=O)(=O)c2cccc(N3CCC(O)(C(C)(C)C(=O)O)CC3)n2)ccc1C(F)(F)F [Compound 9, 2-(4-hydroxy-1-(6-(N-(6-(o-tolyl)-5-(trifluoromethyl)pyridin-2-yl)sulfamoyl)pyridin-2-yl)piperidin-4-yl)-2-methylpropanoic Acid] | 2.02 | 102
Cc1ccccc1-c1nc(NS(=O)(=O)c2cccc(N3CCC(C(C)(C)C(=O)O)CC3)n2)ccc1C(F)(F)F [Compound 10, 2-methyl-2-(1-(6-(N-(6-(o-tolyl)-5-(trifluoromethyl)pyridin-2-yl)sulfamoyl)pyridin-2-yl)piperidin-4-yl)propanoic Acid] | 0.91 | 266
Cc1ccccc1-c1nc(NS(=O)(=O)c2cccc(NCC3(C(=O)O)CC3)n2)ccc1C(F)(F)F [Compound 11, 1-(((6-(N-(6-(o-tolyl)-5-(trifluoromethyl)pyridin-2-yl)sulfamoyl)pyridin-2-yl)amino)methyl)cyclopropane-1-carboxylic Acid] | 2.25 | 415
Cc1ccccc1-c1nc(NS(=O)(=O)c2cccc(NCC3(C(=O)O)CCC3)n2)ccc1C(F)(F)F [Compound 12, 1-(((6-(N-(6-(o-tolyl)-5-(trifluoromethyl)pyridin-2-yl)sulfamoyl)pyridin-2-yl)amino)methyl)cyclobutane-1-carboxylic Acid] | 2.3 | 608
Cc1c(F)cccc1-c1nc(NS(=O)(=O)c2cccc(N3CCC(C)(CC(=O)O)CC3)n2)ccc1C(F)(F)F [Compound 13, 2-(1-(6-(N-(6-(3-fluoro-2-methylphenyl)-5-(trifluoromethyl)pyridin-2-yl)sulfamoyl)pyridin-2-yl)-4-methylpiperidin-4-yl)acetic Acid] | 2.4 | 370
Cc1ccccc1-c1nc(NS(=O)(=O)c2cccc(N3CCC(CC(=O)O)CC3)n2)ccc1C(F)(F)F [Compound 14, 2-(1-(6-(N-(6-(o-tolyl)-5-(trifluoromethyl)pyridin-2-yl)sulfamoyl)pyridin-2-yl)piperidin-4-yl)acetic Acid] | 2.55 | 283
CCc1ccccc1-c1nc(NS(=O)(=O)c2cccc(N3CCC(CC(=O)O)CC3)n2)ccc1C(F)(F)F [Compound 15, 2-(1-(6-(N-(6-(2-ethylphenyl)-5-(trifluoromethyl)pyridin-2-yl)sulfamoyl)pyridin-2-yl)piperidin-4-yl)acetic Acid] | 2.14 | 397
O=C(O)CC1CCN(c2cccc(S(=O)(=O)Nc3ccc(C(F)(F)F)c(-c4ccccc4-c4ccccc4)n3)n2)CC1 [Compound 16, 2-(1-(6-(N-(6-([1,1′-biphenyl]-2-yl)-5-(trifluoromethyl)pyridin-2-yl)sulfamoyl)pyridin-2-yl)piperidin-4-yl)acetic Acid] | 2.01 | 495
